Each molecule was assayed against T1, Human autotaxin enzyme (Homo sapiens, UniProt Q13822) (assay: Evaluation of autotaxin inhibitor, Method B (Test Example 2): TG-mTMP fluorescence). Settings: Assay Method B (Test Example 2), human autotaxin; read-out: Inhibitory Activity (autotaxin enzyme inhibitory activity, IC50 class).
T1 construct: purchased R&D System
Format: biochemical
Method: (Method B) Evaluation of Autotaxin Inhibitor
Solution A containing 25 mM Tris-HCl buffer (pH7.5), 100 mM NaCl, 5 mM MgCl2 and 0.1% BSA was prepared. Human autotaxin enzyme (purchased from R&D System) was diluted with Solution A, and 5 μL of which was added to a solution of test compound in DMSO. Furthermore, 5 μl of 0.5 μM TG-mTMP in Solution A was added and allowed to react at room temperature for 2 hours. 5 μl of 150 mM EDTA in Solution A was added to quench the reaction, and the fluorescent dye TokyoGreen, which was produced by the reaction, was detected. The fluorescence was detected using ViewLux (PerkinElmer, Inc.) with an excitation wavelength of 480 nm and a fluorescence wavelength of 540 nm.

IC50 [µM]	Structure (SMILES)
0.01 to 0.1	CCCCCn1c(C)cc(=O)n2cc(-c3ccc(Cl)cc3Cl)nc12 [Compound 158]
> 1	CCCCCn1c(C)cc(=O)n2cc(-c3ccc(N(CC)CC)cc3)nc12 [Compound 159]
0.1 to 1	CCCCCn1c(C)cc(=O)n2cc(-c3ccc4c(c3)OCCCO4)nc12 [Compound 160]
< 0.01	CCCCCn1c(C)cc(=O)n2cc(-c3ccc(C(F)(F)F)cc3)nc12 [Compound 161]
0.1 to 1	CCCCCn1c(C)cc(=O)n2cc(-c3ccc(F)cc3F)nc12 [Compound 162]
0.1 to 1	CCCCCn1c(C)cc(=O)n2cc(-c3ccccc3F)nc12 [Compound 163]
0.1 to 1	CCCCCn1c(C)cc(=O)n2c(C=O)c(-c3ccc(Cl)cc3)nc12 [Compound 167, 2-(4-chlorophenyl)-7-methyl-5-oxo-8-pentyl-5,8-dihydroimidazo[1,2-a]pyrimidine-3-carbaldehyde]
0.1 to 1	CCCCCn1c(C)cc(=O)n2c(CO)c(-c3ccc(Cl)cc3)nc12 [Compound 168, 2-(4-chlorophenyl)-3-hydroxymethyl-7-methyl-8-pentylimidazo[1,2-a]pyrimidin-5(8H)-one]
0.01 to 0.1	CCCCCn1c(C)cc(=O)n2c(C)c(-c3ccc(Br)cc3)nc12 [Compound 169]
0.01 to 0.1	CCCCCn1c(C)cc(=O)n2c(C)c(-c3ccc(Cl)cc3)nc12 [Compound 170]
0.01 to 0.1	CCCCCn1c(C)cc(=O)n2c(Br)c(-c3ccc(Cl)cc3)nc12 [Compound 171]
> 1	CCCCCn1c(C)cc(=O)n2c(CN)c(-c3ccc(Cl)cc3)nc12 [Compound 172]
> 1	CCCCCn1c(C)cc(=O)n2c(CN(C)C)c(-c3ccc(Cl)cc3)nc12 [Compound 173]
0.01 to 0.1	CCCCCn1c(Cl)cc(=O)n2cc(-c3ccc(Cl)cc3)nc12 [Compound 176, 7-chloro-2-(4-chlorophenyl)-8-pentylimidazo[1,2-a]pyrimidin-5(8H)-one]
0.01 to 0.1	CCCCCn1c(NCc2ccc(C(=O)OC)cc2)cc(=O)n2cc(-c3ccc(Cl)cc3)nc12 [Compound 177, methyl 4-((2-(4-chlorophenyl)-5-oxo-8-pentyl-5,8-dihydroimidazo[1,2-a]pyrimidin-7-ylamino)methyl)benzoate]
< 0.01	CCCCCn1c(NCc2ccc(C(=O)OC)cc2)c(C)c(=O)n2cc(-c3ccc(Cl)cc3)nc12 [Compound 178, methyl 4-((2-(4-chlorophenyl)-6-methyl-5-oxo-8-pentyl-5,8-dihydroimidazo[1,2-a]pyrimidin-7-ylamino)methyl)benzoate]
0.01 to 0.1	CCCCCn1c(C)c(CC(=O)O)c(=O)n2cc(-c3ccc(Cl)cc3)nc12 [Compound 179]
< 0.01	CCCCCn1c(C)c(CCC(=O)O)c(=O)n2cc(-c3ccc(Cl)cc3)nc12 [Compound 180]
< 0.01	CCCCCn1c(C)c(CC(=O)NCC)c(=O)n2cc(-c3ccc(Cl)cc3)nc12 [Compound 181]
> 1	CCCCCn1c(C)c(-c2ccccc2)c(=O)n2cc(-c3ccc(Cl)cc3)nc12 [Compound 182]
0.01 to 0.1	CCCCCn1c(C)c(C#CCO)c(=O)n2cc(-c3ccc(Cl)cc3)nc12 [Compound 183]
> 1	CCCCCn1c(C)c(C#N)c(=O)n2cc(-c3ccc(Cl)cc3)nc12 [Compound 184]
0.1 to 1	CCCCCn1c(C)c(C(=O)O)c(=O)n2cc(-c3ccc(Cl)cc3)nc12 [Compound 185]
0.01 to 0.1	CCCCCn1ccc(=O)n2cc(-c3ccc(Cl)cc3)nc12 [Compound 186]
0.01 to 0.1	CCCCCn1c(N2CCCC2)cc(=O)n2cc(-c3ccc(Cl)cc3)nc12 [Compound 187]

IC50 [µM]	Structure (SMILES)
0.01 to 0.1	CCCCCn1c(NCCC)cc(=O)n2cc(-c3ccc(Cl)cc3)nc12 [Compound 188]
0.01 to 0.1	CCCCCn1c(OCCC)cc(=O)n2cc(-c3ccc(Cl)cc3)nc12 [Compound 189]
< 0.01	CCCCCn1c(N2CCN(CCN3CCOCC3)CC2)cc(=O)n2cc(-c3ccc(Cl)cc3)nc12 [Compound 191]
< 0.01	CCCCCn1c(OC2CCN(C)CC2)cc(=O)n2cc(-c3ccc(Cl)cc3)nc12 [Compound 193]
< 0.01	CCCCCn1c(N(C)Cc2ccc(C(=O)OC)cc2)cc(=O)n2cc(-c3ccc(Cl)cc3)nc12 [Compound 195]
< 0.01	CCCCCn1c(N2CCC2)cc(=O)n2cc(-c3ccc(Cl)cc3)nc12 [Compound 196]
0.01 to 0.1	CCCCCn1c(C)c(NC(C)=O)c(=O)n2cc(-c3ccc(Cl)cc3)nc12 [Compound 199]
< 0.01	CCCCCn1c(C)c(CCC(=O)OCC)c(=O)n2cc(-c3ccc(Cl)cc3)nc12 [Compound 200]
< 0.01	CCCCCOC(=O)CCc1c(C)n(CCCCC)c2nc(-c3ccc(Cl)cc3)cn2c1=O [Compound 201]
0.01 to 0.1	CCCCCn1c(C)c(Cc2ccccc2)c(=O)n2cc(-c3ccc(Cl)cc3)nc12 [Compound 203]
0.1 to 1	CCCCCn1c(C)c(CCCC)c(=O)n2cc(-c3ccc(Cl)cc3)nc12 [Compound 204]
0.01 to 0.1	CCCCCn1c(C)c(CC)c(=O)n2cc(-c3ccc(Cl)cc3)nc12 [Compound 205]
0.01 to 0.1	CCCCCn1c(C)c(F)c(=O)n2cc(-c3ccc(Cl)cc3)nc12 [Compound 206]
0.01 to 0.1	CCCCCn1c(C)c(C)c(=O)n2cc(-c3ccc(Cl)cc3)nc12 [Compound 208]
0.1 to 1	CCCCCn1c(C)c(NC(C)=O)c(=O)n2cc(-c3cccc(Cl)c3)nc12 [Compound 209]
0.1 to 1	CCCCCn1c(C)c(CCC(=O)OCC)c(=O)n2cc(-c3cccc(Cl)c3)nc12 [Compound 210]
> 1	CCCCCn1c(C)c(Cc2ccccc2)c(=O)n2cc(-c3cccc(Cl)c3)nc12 [Compound 211]
> 1	CCCCCn1c(C)c(F)c(=O)n2cc(-c3cccc(Cl)c3)nc12 [Compound 212]
0.1 to 1	CCCCCn1c(C)c(CCO)c(=O)n2cc(-c3cccc(Cl)c3)nc12 [Compound 213]
< 0.01	CCCCCn1c(C)c(CCOCC)c(=O)n2cc(-c3ccc(Cl)cc3)nc12 [Compound 214]
< 0.01	CCCCCOC(=O)Cc1c(C)n(CCCCC)c2nc(-c3ccc(Cl)cc3)cn2c1=O [Compound 215]
> 1	CCCCCn1c(C)c(CCOCC)c(=O)n2cc(-c3ccc(Cl)cc3)nc12 [Compound 216]
0.1 to 1	CCCCCOC(=O)CCc1c(C)n(CCCCC)c2nc(-c3ccc(Cl)cc3)cn2c1=O [Compound 217]
0.01 to 0.1	CCCCCn1c(NCC(=O)O)cc(=O)n2cc(-c3ccc(Cl)cc3)nc12 [Compound 218]
0.01 to 0.1	CCCCCn1c(NCCO)cc(=O)n2cc(-c3ccc(Cl)cc3)nc12 [Compound 222]

IC50 [µM]	Structure (SMILES)
0.01 to 0.1	CCCCCn1c(N2CCN(CCc3ccccc3)CC2)cc(=O)n2cc(-c3ccc(Cl)cc3)nc12 [Compound 223]
0.01 to 0.1	CCCCCn1c(NC2CCCC2)cc(=O)n2cc(-c3ccc(Cl)cc3)nc12 [Compound 224]
< 0.01	CCCCCn1c(N2CCC(C(=O)O)CC2)cc(=O)n2cc(-c3ccc(Cl)cc3)nc12 [Compound 225]
0.01 to 0.1	CCCCCn1c(NCc2ccc(OC)cc2)cc(=O)n2cc(-c3ccc(Cl)cc3)nc12 [Compound 226]
< 0.01	CCCCCn1c(NCCN2CCN(C)CC2)cc(=O)n2cc(-c3ccc(Cl)cc3)nc12 [Compound 227]
0.01 to 0.1	CCCCCn1c(NCc2cccn2C)cc(=O)n2cc(-c3ccc(Cl)cc3)nc12 [Compound 228]
0.01 to 0.1	CCCCCn1c(NCc2ccccn2)cc(=O)n2cc(-c3ccc(Cl)cc3)nc12 [Compound 229]
< 0.01	CCCCCn1c(N(C)CCC)cc(=O)n2cc(-c3ccc(Cl)cc3)nc12 [Compound 230]
< 0.01	CCCCCn1c(N(C)C)cc(=O)n2cc(-c3ccc(Cl)cc3)nc12 [Compound 231]
< 0.01	CCCCCn1c(N2CCN(C)CC2)cc(=O)n2cc(-c3ccc(Cl)cc3)nc12 [Compound 232]
0.01 to 0.1	CCCCCn1c(NCc2nccs2)cc(=O)n2cc(-c3ccc(Cl)cc3)nc12 [Compound 233]
< 0.01	CCCCCn1c(N2CCOCC2)cc(=O)n2cc(-c3ccc(Cl)cc3)nc12 [Compound 234]
0.01 to 0.1	CCCCCn1c(NCCN(C)C)cc(=O)n2cc(-c3ccc(Cl)cc3)nc12 [Compound 235]
0.01 to 0.1	CCCCCn1c(NCCNC(C)=O)cc(=O)n2cc(-c3ccc(Cl)cc3)nc12 [Compound 236]
0.01 to 0.1	CCCCCn1c(NCc2ccc(N(C)C)cc2)cc(=O)n2cc(-c3ccc(Cl)cc3)nc12 [Compound 237]
< 0.01	CCCCCn1c(NCCN2CCOCC2)cc(=O)n2cc(-c3ccc(Cl)cc3)nc12 [Compound 238]
0.01 to 0.1	CCCCCn1c(N2C[C@H]3CC[C@@H](C2)O3)cc(=O)n2cc(-c3ccc(Cl)cc3)nc12 [Compound 239]
< 0.01	CCCCCn1c(N2CCN(CC(=O)N(C)C)CC2)cc(=O)n2cc(-c3ccc(Cl)cc3)nc12 [Compound 240]
< 0.01	CCCCCn1c(NCC(=O)N2CCN(C)CC2)cc(=O)n2cc(-c3ccc(Cl)cc3)nc12 [Compound 241]
< 0.01	CCCCCn1c(N2CCN(CCCOC)CC2)cc(=O)n2cc(-c3ccc(Cl)cc3)nc12 [Compound 243]
0.01 to 0.1	CCCCCn1c(N2CCC(N3CCOCC3)CC2)cc(=O)n2cc(-c3ccc(Cl)cc3)nc12 [Compound 244]
0.01 to 0.1	CCCCCn1c(N2CCN(c3cc(F)cc(F)c3)CC2)cc(=O)n2cc(-c3ccc(Cl)cc3)nc12 [Compound 245]
0.01 to 0.1	CCCCCn1c(N2CCCCC2)cc(=O)n2cc(-c3ccc(Cl)cc3)nc12 [Compound 246]
0.01 to 0.1	CCCCCn1c(N2CCCCCC2)cc(=O)n2cc(-c3ccc(Cl)cc3)nc12 [Compound 247]

From patent US20160002247A1, “8-SUBSTITUTED IMIDAZOPYRIMIDINONE DERIVATIVE HAVING AUTOTAXIN INHIBITORY ACTIVITY” (THE UNIVERSITY OF TOKYO, priority 2013, published 2016)
